Results published in article PMC11855827, “High-Throughput Screening of Five Compound Libraries for Anthelmintic Activity and Toxicity Leads to the Discovery of Two Flavonoid Compounds” (International Journal of Molecular Sciences, 2025).
Like-named read-outs stand apart in the source and are kept apart here.

Tested on: C. elegans
Experiment: microbe, parasite or virus in culture
Details: Caenorhabditis elegans
[1] = 0 h, read-out: Percentage of motility inhibition 0 h
[2] = 24 h, read-out: Percentage of motility inhibition 24 h
[3] = 0 h, read-out: Percentage of motility inhibition 0 h, Table S2, C. elegans SS assay, 110 μM, 0 h, averages of 4 data points
[4] = 24 h, read-out: Percentage of motility inhibition 24 h, Table S2, C. elegans SS assay, 110 μM, 24 h, averages of 4 data points

SMILES: O=C(/C=C/c1ccc(O)cc1)OC[C@H]1O[C@@H](Oc2c(-c3ccc(O)cc3)oc3cc(O)cc(O)c3c2=O)[C@H](O)[C@@H](O)[C@@H]1O [Tiliroside]
- inhibition at 110 µM [1]: 2%
- inhibition at 110 µM [2]: 9%

SMILES: Oc1cc(Cl)ccc1Oc1ccc(Cl)cc1Cl [Triclosan]
- inhibition at 110 µM [3]: 45%
- inhibition at 110 µM [4]: 60%

SMILES: O=C(O)C1=CO[C@@H](O[C@@H]2O[C@H](CO)[C@@H](O)[C@H](O)[C@H]2O)[C@@H]2C(CO)=CC[C@H]12 [Geniposidic acid]
- inhibition at 110 µM [3]: 0%
- inhibition at 110 µM [4]: 3%

SMILES: C[C@H](CCC(=O)O)[C@H]1CC[C@H]2[C@@H]3[C@H](O)C[C@@H]4C[C@H](O)CC[C@]4(C)[C@H]3CC[C@]12C [Chenodeoxycholic Acid]
- inhibition at 110 µM [3]: 0%
- inhibition at 110 µM [4]: 5%

SMILES: COc1cc(O)c2c(c1)O[C@H](c1ccccc1)CC2=O [Pinostrobin]
- inhibition at 110 µM [1]: 1%
- inhibition at 110 µM [2]: 7%

SMILES: CS(=O)(=O)c1ccc([C@@H](O)[C@@H](CO)NC(=O)C(Cl)Cl)cc1 [Thiamphenicol]
- inhibition at 110 µM [3]: 24%
- inhibition at 110 µM [4]: 1%

SMILES: CC1(C)CC[C@]2(C(=O)O)CC[C@]3(C)C(=CC[C@@H]4[C@@]5(C)CC[C@H](O)[C@@](C)(CO)[C@@H]5CC[C@]43C)[C@@H]2C1 [Hederagenin]
- inhibition at 110 µM [1]: 30%
- inhibition at 110 µM [2]: 21%

SMILES: COc1cc(O)ccc1/C=C/C(=O)c1ccc(O)cc1 [Echinatin]
- inhibition at 110 µM [3]: 17%
- inhibition at 110 µM [4]: 10%

SMILES: C[C@@H]1O[C@@H](O[C@H]2[C@H](O)[C@@H](O)[C@H](OC[C@H]3O[C@@H](OC(=O)[C@]45CCC(C)(C)C[C@H]4C4=CC[C@@H]6[C@@]7(C)CC[C@H](O[C@@H]8OC[C@H](O)[C@H](O)[C@H]8O)[C@@](C)(CO)[C@@H]7CC[C@@]6(C)[C@]4(C)CC5)[C@H](O)[C@@H](O)[C@@H]3O)O[C@@H]2CO)[C@H](O)[C@H](O)[C@H]1O [Cauloside D]
- inhibition at 110 µM [3]: 6%
- inhibition at 110 µM [4]: 17%

SMILES: C=C[C@H]1CN2CC[C@]3(C(=O)Nc4ccccc43)[C@@H]2C[C@@H]1/C(=C\OC)C(=O)OC [Corynoxeine]
- inhibition at 110 µM [3]: 0%
- inhibition at 110 µM [4]: 2%

SMILES: C[C@@]12C[C@@]3(O)O[C@@H](O1)[C@]1(COC(=O)c4ccccc4)[C@H]3C[C@@]12O[C@@H]1O[C@H](COC(=O)c2ccccc2)[C@@H](O)[C@H](O)[C@H]1O [Benzoylpaeoniflorin]
- inhibition at 110 µM [3]: 10%
- inhibition at 110 µM [4]: 0%

SMILES: Nc1ccc(S(=O)(=O)Nc2ccnn2-c2ccccc2)cc1 [Sulfaphenazole]
- inhibition at 110 µM [3]: 0%
- inhibition at 110 µM [4]: 3%

SMILES: C[C@]12CC[C@@H]3c4ccc(O)cc4CC[C@H]3[C@@H]1CCC2=O [Estrone]
- inhibition at 110 µM [3]: 32%
- inhibition at 110 µM [4]: 0%

SMILES: CCCSc1ccc2nc(NC(=O)OC)[nH]c2c1 [Albendazole]
- inhibition at 110 µM [1]: 17%
- inhibition at 110 µM [2]: 6%

SMILES: CC(=O)c1ccc[nH]1 [2‐Acetylpyrrole]
- inhibition at 110 µM [3]: 26%
- inhibition at 110 µM [4]: 18%

SMILES: C/C1=C\CC[C@]23O[C@H]2[C@@H](OC3=O)c2c(C)coc2C1 [Linderane]
- inhibition at 110 µM [3]: 5%
- inhibition at 110 µM [4]: 16%

SMILES: O=c1c(O[C@@H]2O[C@H](CO)[C@@H](O)[C@H](O)[C@H]2O)c(-c2ccc(O)c(O)c2)oc2cc(O)cc(O)c12 [Isoquercitrin]
- inhibition at 110 µM [3]: 31%
- inhibition at 110 µM [4]: 2%

SMILES: CO[C@H]1/C=C/O[C@@]2(C)Oc3c(C)c(O)c4c(O)c(c(/C=N/N5CCN(C6CCCC6)CC5)c(O)c4c3C2=O)NC(=O)/C(C)=C\C=C\[C@H](C)[C@H](O)[C@@H](C)[C@@H](O)[C@@H](C)[C@H](OC(C)=O)[C@@H]1C [Rifapen tine]
- inhibition at 110 µM [3]: 9%
- inhibition at 110 µM [4]: 13%

SMILES: NCCc1c[nH]cn1 [Histamine]
- inhibition at 110 µM [3]: 5%
- inhibition at 110 µM [4]: 6%

SMILES: CO[C@H]1/C=C/O[C@@]2(C)Oc3c(C)c(O)c4c(O)c(c(/C=N/N5CCN(C)CC5)c(O)c4c3C2=O)NC(=O)/C(C)=C\C=C\[C@H](C)[C@H](O)[C@@H](C)[C@@H](O)[C@@H](C)[C@H](OC(C)=O)[C@@H]1C [Rifampicin]
- inhibition at 110 µM [3]: 13%
- inhibition at 110 µM [4]: 4%

SMILES: CC(C)(C)[C@]1(O)CC2OC(=O)CC23C(=O)OC2OC(=O)[C@H](O)C231 (stereo partly drawn) [Bilobalide]
- inhibition at 110 µM [3]: 0%
- inhibition at 110 µM [4]: 23%

SMILES: O=c1c(-c2ccc(O[C@@H]3O[C@H](CO)[C@@H](O)[C@H](O)[C@H]3O)cc2)coc2cc(O)cc(O)c12 [Sophoricoside]
- inhibition at 110 µM [1]: 0%
- inhibition at 110 µM [2]: 9%

SMILES: CCCCCCCCCC(=O)N[C@@H](Cc1c[nH]c2ccccc12)C(=O)N[C@H](CC(N)=O)C(=O)N[C@@H](CC(=O)O)C(=O)N[C@@H]1C(=O)NCC(=O)N[C@@H](CCCN)C(=O)N[C@@H](CC(=O)O)C(=O)N[C@H](C)C(=O)N[C@@H](CC(=O)O)C(=O)NCC(=O)N[C@H](CO)C(=O)N[C@@H]([C@H](C)CC(=O)O)C(=O)N[C@@H](CC(=O)c2ccccc2N)C(=O)O[C@@H]1C [Daptomycin]
- inhibition at 110 µM [3]: 3%
- inhibition at 110 µM [4]: 8%

SMILES: Cc1nnc(NS(=O)(=O)c2ccc(N)cc2)s1 [Sulfamethizole]
- inhibition at 110 µM [3]: 4%
- inhibition at 110 µM [4]: 0%

SMILES: O=C(Nc1ccccc1)c1ccccc1O [Salicylanilide]
- inhibition at 110 µM [3]: 43%
- inhibition at 110 µM [4]: 21%

SMILES: C[C@H](CO)C1=C(O)C(=O)c2c(ccc3c2CCCC3(C)C)C1=O [Neocryptotanshinone]
- inhibition at 110 µM [3]: 18%
- inhibition at 110 µM [4]: 25%

SMILES: COc1c(-c2ccc3cc(NS(C)(=O)=O)ccc3c2)cc(-n2ccc(=O)[nH]c2=O)cc1C(C)(C)C [ABT‐333]
- inhibition at 110 µM [3]: 40%
- inhibition at 110 µM [4]: 0%

SMILES: Nc1ccc(S(=O)(=O)c2ccc(N)cc2)cc1 [Dapsone]
- inhibition at 110 µM [3]: 42%
- inhibition at 110 µM [4]: 24%

SMILES: CC(=O)O[C@@H]1C(=O)C2=C(C(=O)C[C@H]3C(C)(C)C(=O)CC[C@]23C)[C@]2(C)C(=O)C[C@H]([C@H](C)CC(=O)CC(C)C(=O)O)[C@@]12C (stereo partly drawn) [Ganoderic acid F]
- inhibition at 110 µM [3]: 14%
- inhibition at 110 µM [4]: 2%

SMILES: O=C1c2c(O)cc(O)cc2OC(c2ccc(O)c(O)c2)C1O (stereo not drawn) [Taxifolin]
- inhibition at 110 µM [3]: 10%
- inhibition at 110 µM [4]: 14%

SMILES: C=C1CC[C@H]2C(=C)CC[C@H]3C(=C)C(=O)O[C@@H]3[C@@H]12 [Dehydrocostus Lactone]
- inhibition at 110 µM [3]: 0%
- inhibition at 110 µM [4]: 24%

SMILES: C=C(CC[C@@H](C(=O)O)[C@H]1CC[C@@]2(C)C3=C(CC[C@]12C)[C@@]1(C)CC[C@H](O)C(C)(C)[C@@H]1CC3)C(C)C [Eburicoic acid]
- inhibition at 110 µM [3]: 27%
- inhibition at 110 µM [4]: 56%

SMILES: CCc1nn(CCO)c(CC)c1Oc1cc(C#N)cc(C#N)c1 [Lersivirine]
- inhibition at 110 µM [3]: 18%
- inhibition at 110 µM [4]: 8%

SMILES: O=C(O)c1cn(C2CC2)c2cc(N3CCNCC3)c(F)cc2c1=O [Ciprofloxacin]
- inhibition at 110 µM [3]: 33%
- inhibition at 110 µM [4]: 2%

SMILES: COc1cc2c(cc1OC)[C@@H](Cc1ccc(Oc3cc(C[C@@H]4c5cc(OC)c(OC)cc5CCN4C)ccc3O)cc1)N(C)CC2 [Dauricine]
- inhibition at 110 µM [1]: 2%
- inhibition at 110 µM [2]: 9%

SMILES: CC(C)=CCc1cc2c(cc1O)O[C@H](c1ccc(O)cc1)CC2=O [Bavachin]
- inhibition at 110 µM [3]: 27%
- inhibition at 110 µM [4]: 24%

SMILES: COc1ccccc1OCC(O)CO (stereo not drawn) [Guaifenesin]
- inhibition at 110 µM [3]: 46%
- inhibition at 110 µM [4]: 27%

SMILES: COc1cc2c(cc1Cc1cccc(Cl)c1F)c(=O)c(C(=O)O)cn2[C@H](CO)C(C)C [Elvitegravir]
- inhibition at 110 µM [3]: 23%
- inhibition at 110 µM [4]: 48%

SMILES: COc1cc(-c2cc(=O)c3c(O)cc(O)cc3o2)cc(OC)c1O [Tricin]
- inhibition at 110 µM [3]: 31%
- inhibition at 110 µM [4]: 2%

SMILES: CN(C)[C@@H]1C(O)=C(C(N)=O)C(=O)[C@@]2(O)C(O)=C3C(=O)c4c(O)cccc4[C@@](C)(O)[C@H]3C[C@@H]12 [Tetracycline]
- inhibition at 110 µM [3]: 39%
- inhibition at 110 µM [4]: 46%

SMILES: C[C@H](CC[C@@H](O)C(C)(C)O)[C@H]1CC[C@@]2(C)[C@@H]3CC=C4[C@@H](CC[C@H](O)C4(C)C)[C@]3(C)[C@H](O)C[C@]12C [Mogrol]
- inhibition at 110 µM [3]: 5%
- inhibition at 110 µM [4]: 2%

SMILES: COc1cc(OC)cc(OC)c1 [1,3,5‐Trimethoxybenzene]
- inhibition at 110 µM [3]: 1%
- inhibition at 110 µM [4]: 25%

SMILES: Nc1cc(C(Cl)=C(Cl)Cl)c(S(N)(=O)=O)cc1S(N)(=O)=O [Clorsulon]
- inhibition at 110 µM [3]: 12%
- inhibition at 110 µM [4]: 5%

SMILES: C=CC1=C(C(=O)O)N2C(=O)[C@@H](NC(=O)/C(=N\OCC(=O)O)c3csc(N)n3)[C@H]2SC1 [Cefixime]
- inhibition at 110 µM [3]: 38%
- inhibition at 110 µM [4]: 12%

SMILES: COc1cc2c(cc1OC)[C@@H]1C(=O)c3ccc4c(c3O[C@@H]1CO2)C=CC(C)(C)O4 [Deguelin]
- inhibition at 110 µM [3]: 0%
- inhibition at 110 µM [4]: 0%

SMILES: O=C(O)CCc1nc2ccccc2[nH]1 [Procodazole]
- inhibition at 110 µM [1]: 0%
- inhibition at 110 µM [2]: 3%

SMILES: O=c1cc(-c2ccccc2)oc2ccccc12 [Flavone]
- inhibition at 110 µM [3]: 0%
- inhibition at 110 µM [4]: 5%

SMILES: C=CC1(C)Cc2occ(C)c2C(=O)C1C(=C)C (stereo not drawn) [Curzerenone]
- inhibition at 110 µM [3]: 10%
- inhibition at 110 µM [4]: 9%

SMILES: CC(C)(C)NC(=O)N[C@H](C(=O)N1C[C@H]2[C@@H]([C@H]1C(=O)NC(CC1CCC1)C(=O)C(N)=O)C2(C)C)C(C)(C)C (stereo partly drawn) [Boceprevir]
- inhibition at 110 µM [3]: 28%
- inhibition at 110 µM [4]: 39%

SMILES: CCCOC(=O)c1cc(O)c(O)c(O)c1 [Propyl gallate]
- inhibition at 110 µM [3]: 1%
- inhibition at 110 µM [4]: 0%

SMILES: c1ccc2c(c1)[nH]c1cnccc12 [Norharmane]
- inhibition at 110 µM [3]: 0%
- inhibition at 110 µM [4]: 9%

SMILES: OB1OCc2cc(F)ccc21 [AN‐2690]
- inhibition at 110 µM [3]: 0%
- inhibition at 110 µM [4]: 12%

SMILES: CC1OC(OCC2OC(Oc3c(-c4ccc(O)cc4)oc4cc(OC5OC(C)C(O)C(O)C5O)cc(O)c4c3=O)C(O)C(O)C2O)C(O)C(O)C1O (stereo not drawn) [Robinin]
- inhibition at 110 µM [3]: 31%
- inhibition at 110 µM [4]: 8%

SMILES: O=C(O)CCCc1c[nH]c2ccccc12 [Indole‐3‐butyric acid]
- inhibition at 110 µM [3]: 2%
- inhibition at 110 µM [4]: 0%
